Legend:
Assay type in all cases: cell-based, human
[1] = tested on: H82 small cell lung cancer cells; assay: Trypan blue cytotoxicity, H82; conditions: 0.625 μM disulfiram; 36 hours
Method: (§1) To assess for cytotoxicity, cells were plated at a density of 50,000 per well on 24 well plates and grown for 24 hours. Disulfiram was then added. After an additional 36 hours, medium was removed and replaced with DPBS containing 0.1% trypan blue. Cell death was assessed by counting the average number of trypan blue positive cells per 10×field in 5 random fields for 4 separate wells.

[2] = tested on: H520 lung carcinoma cells; assay: Trypan blue cytotoxicity, H520; conditions: 0.625 μM disulfiram; 36 hours
Method: as §1

tumor cell lines = assay: Proliferation of tumor cell lines with redox, NO synthase or cyclooxygenase agents (cell line not given)
Method: Potential redox effects of disulfiram were studied in three sets of experiments. The importance of cellular glutathione (GSH) in mediating or modulating thiocarbamate toxicity was studied by measuring levels of intracellular GSH after treatment with disulfiram. […] Also, to assess whether a nonspecific antioxidant effect of disulfiram or PDTC might account for cellular growth inhibition, we studied the effect of the potent lipophilic antioxidant probucol (1.0 to 1,000 μM) on proliferation of malignant cell lines. […] To explore the role of cyclooxygenase inhibition on tumor cell growth, cells were cultured with or without disulfiram in the presence or absence of the cyclooxygenase-1 (COX1) and cyclooxygenase-2 (COX2) inhibitors indomethacin (5μg/ml) or sodium salicylate (1 mM). To probe whether disulfiram might be inducing growth retardation by interruption or stimulation of NO production, proliferation was studied with and without disulfiram in the presence and absence of the nitric oxide […] inhibitor Nω-nitro-L-arginine added to growth medium (100 μM). […] J. Respir. Cell Mol. Biol. 7:574-581 (1992); […], et al. R., supra; S. S. Brar, et al., “Requirement for reactive oxygen species in serum-induced and platelet-derived growth factor-induced growth of airway smooth muscle,” J. Biol. Chem. 274:20017-20026 (1999)). This assay empirically distinguishes between dead and living cells. For proliferation studies, cells were seeded into 24-well uncoated plastic plates (Costar) at 50,000 cells per well and cultured with respective media and mitogens. […] MTT-containing medium was removed, 0.5 ml dimethylsulfoxide (DMSO) was added to each well, and the absorbance of the solubilized purple formazan dye was measured at 540 nm. A total of 4-6 wells were studied at each treatment condition.

M1619 cells = assay: Intracellular reactive oxygen species, dichlorofluorescin probe
Method: Potential redox effects of disulfiram were studied in three sets of experiments. The importance of cellular glutathione (GSH) in mediating or modulating thiocarbamate toxicity was studied by measuring levels of intracellular GSH after treatment with disulfiram. […] Also, to assess whether a nonspecific antioxidant effect of disulfiram or PDTC might account for cellular growth inhibition, we studied the effect of the potent lipophilic antioxidant probucol (1.0 to 1,000 μM) on proliferation of malignant cell lines. […] A. Royall, et al., “Evaluation of 2′,7′-dichlorofluorescin and dihydrorhodamine 123 as fluorescent probes for intracellular H2O2 in cultured endothelial cells,” Archiv. Biochem. Biophys. 302:348-355 (1993)). […] Cells were plated in 24 well plastic plates at 50,000 cells per well and grown to confluence. Media was aspirated from wells and replaced with 100 μl medium containing 10 μM DCF-DA, and plates were incubated at 37° C. for 30 minutes. The DCF-DA containing media was aspirated, cells were washed twice with media alone and 100 μl fresh media was added to wells. […] The relative concentration of dichlorofluroescein was measured immediately by monitoring fluorescence at 37° C. using an excitation wavelength of 485 nm and emission wavelength of 535 nm.

M1619 melanoma cells = assay: Apoptosis by TdT 3'-OH fluorescein end-labeling of DNA fragments; conditions: 5 μM disulfiram; 15 hours
Method: To determine whether disulfiram induced apoptosis, cells grown to confluence on 35 mm Petri dishes or on glass slides were treated with disulfiram or DMSO as vehicle. Apoptosis was studied by terminal deoxynucleotidyl transferase (TdT) dependent 3′-OH fluorescein end-labeling of DNA fragments, using a Fluorescein-FragEL™ DNA fragmentation detection kit (Oncogene Research Products, Cambridge, Mass.). Apoptosis was also studied by visually assessing endonuclease dependent DNA fragmentation on ethidium bromide-stained agarose gels.
In FIG. 5A, M1619 melanoma cells treated with DMSO vehicle. In FIG. 5B, M1619 melanoma cells treated with 5 μM disulfiram. […] Cells were grown to confluence on 35 mm Petri dishes or on glass slides and treated for 15 hours with disulfiram or DMSO as vehicle. Apoptosis was studied by terminal deoxynucleotidyl transferase (TdT) dependent 3′-OH fluorescein end-labeling of DNA fragments, using a Fluorescein-FragEL™ DNA fragmentation detection kit (Oncogene Research Products, Cambridge, Mass.).

## CCN(CC)C(=S)SSC(=S)N(CC)CC [Disulfiram, tetraethylthiuram disulfide]
[1]
  trypan blue positive cells: 93±12 trypan blue positive cells per well
[2]
  trypan blue positive cells: 94±18 trypan blue positive cells per well
Tumor cell lines; disulfiram alone
  inhibition of growth: 36.8±4.0%
Tumor cell lines; disulfiram plus LNAME
  inhibition of growth: 26.7±3.1%
M1619 cells; 1.25 μM disulfiram and 0.2 to 1.6 μM CuSO4
  generation of reactive oxygen species (dichlorofluorescein fluorescence vs baseline): not increased
M1619 cells; disulfiram 0.625 to 5 μM
  generation of reactive oxygen species (dichlorofluorescein fluorescence vs baseline): not increased
M1619 melanoma cells
  3'-OH fluorescein end-labeling of DNA fragments (apoptosis): markedly increases
